Measurements as given in publication PMC6327983, “Discovery of cyanopyridine scaffold as novel indoleamine-2,3-dioxygenase 1 (IDO1) inhibitors through virtual screening and preliminary hit optimisation” (Journal of Enzyme Inhibition and Medicinal Chemistry, 2019).

Columns and labels:
IDO1 [1] = target: T1, IDO1 (Homo sapiens, UniProt P14902); test: Enzyme-based IDO1 activity assay; format: biochemical; conditions: purified human IDO1 enzyme; read-out: Enzymatic assay IC50 (hIDO1)
T1 construct: made in house
T1 sequence (P14902 whole entry): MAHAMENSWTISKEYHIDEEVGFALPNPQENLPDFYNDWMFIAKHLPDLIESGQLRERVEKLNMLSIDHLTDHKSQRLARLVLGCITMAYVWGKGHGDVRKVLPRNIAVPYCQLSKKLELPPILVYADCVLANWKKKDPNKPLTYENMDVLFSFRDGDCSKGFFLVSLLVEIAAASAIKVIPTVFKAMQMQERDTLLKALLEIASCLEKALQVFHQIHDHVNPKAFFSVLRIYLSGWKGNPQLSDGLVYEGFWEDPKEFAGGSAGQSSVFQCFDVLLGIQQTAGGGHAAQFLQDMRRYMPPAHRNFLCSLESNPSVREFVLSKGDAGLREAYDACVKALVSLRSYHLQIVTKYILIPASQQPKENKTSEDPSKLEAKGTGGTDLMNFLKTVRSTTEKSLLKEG

ferric IDO1 = target: T2, ferric IDO1 (Homo sapiens, UniProt P14902); test: Measurement of IDO1 absorbance spectra (UV–visible); format: binding; conditions: 20 µM compound, 5 µM IDO1, phosphate buffer pH 6.5; 406 nm in absence of compound
T2 construct: made in house
T2 sequence (P14902 whole entry): as above
Description: Absorbance spectra (250–480 nm) were measured immediately after addition of compound LBJ-10 (20 µM in 0.5% DMSO) to IDO1 (5 µM) in phosphate buffer (pH 6.5) using a Tecan Safire2 microplate reader.
A UV–visible spectra study was performed to evaluate the binding of the representative compound LBJ-10 (Figure 11). The absorption spectrum of the haeme group is highly sensitive to the changes in the polarity of haeme surrounding upon the ligand or substrate binding, leading to the change of spectra properties of the haeme. The UV–visible spectra of ferric IDO1 was measured in the presence and absence of compound LBJ-10.

IDO1 [2] = target: T1, IDO1; test: Determination of the inhibition type (rate V against enzyme amount E); format: biochemical; conditions: 1 µM inhibitor, 50 µM L-tryptophan
Description: The standard assay mixture (1 ml) contained 50 mM potassium phosphate buffer (pH = 6.5), 25 mM neutralised ascorbic acid, 10 µM methylene blue, 100 µg/mL catalase, 50 µM L-Trp, DMSO (0.5%), and eight different concentrations of IDO1. In addition, 1 µM LBJ-10 solution was added into the mixture. The reaction, at 37 °C, was started by the addition of the substrate and terminated after 60 min by adding 200 µL of 30% (w/v) trichloroacetic acid and further incubated at 50 °C for 30 min to hydrolyse N-formylkynurenine to produce kynurenine. After centrifugation at 12,000 rpm for 15 min at 20 °C, kynurenine in the supernatant (1 mL) was measured by a HPLC system with a reversed phase column (4.6 mm × 15 cm) of GL Sciences Inc. The mobile phase was 10 mM ammonium acetate containing 10% (w/v) methanol, and kynurenine was detected by absorbance at 360 nm. All determinations were carried out in duplicate. The data presented are average values. Based on the results of the activity assay, a function of rate ([V]) against enzyme amount ([E]) was proposed.
We also carried the additional experiment to determine the reversibility of compound LBJ-10. Detailed kinetics analysis was performed on LBJ-10 based on plotting a function of the rate (V) against the enzyme amount ([E]) (Figure 12(A))[58]^,[59]. […]

SMILES: N#Cc1ccc(C(F)(F)F)nc1SCC(=O)Nc1ccc(F)c(Cl)c1 [LBJ-10, N-(3-chloro-4-fluorophenyl)-2-((3-cyano-6-(trifluoromethyl)pyridin-2-yl)thio) acetamide]
- IC50 (IDO1 [1]): 840 ± 330 nM
- Soret peak of ferric IDO1 in the presence of compound (ferric IDO1): 416 nm
- Inhibition type (reversibility) (IDO1 [2]): reversible inhibitor
